The test system of the test is IL-1β production in PMA-differentiated THP-1 cells. Kind of test: IL-1β production in PMA-differentiated THP-1 cells stimulated with gramicidin (hTHP-1 assay, 2% fetal bovine serum; Procedures 1-3). The test is classed as cell-based, human. Conditions: hTHP-1 assay containing 2% fetal bovine serum, Table B2, class symbols; read-out: IC50. The method, boiled down: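 PMA-primed THP-1 cells (20 ng/ml PMA, 16-18 h) in RPMI with 2% FBS were pre-incubated with compounds for 1 h, from 100 μM downward in 3-fold steps (0.37% DMSO final), then stimulated with 5 μM gramicidin for 2 h. IL-1β in the supernatant was quantified by HTRF.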

With `NS(=O)(=NC(=O)Nc1c2c(cc3c1CCC3)CCC2)c1cnn2c1OC[C@H](O)C2` (single isomer, unassigned) [Example 516, (S,6R) or (R,6R)-N′-((1,2,3,5,6,7-hexahydro-s-indacen-4-yl)carbamoyl)-6-hydroxy-6,7-dihydro-5H-pyrazolo[5,1-b] [1,3]oxazine-3-sulfonimidamide], the half-inhibitory concentration (IC50) lay in the range of 1 to 5 µM.

Take `CN(C)Cc1cnc(S(N)(=O)=NC(=O)Nc2c3c(cc4c2CCC4)CCC3)c(F)c1` (single isomer, unassigned) [Example 517, (S) or (R)-5-((dimethylamino)methyl)-3-fluoro-N′-((1,2,3,5,6,7-hexahydro-s-indacen-4-yl)carbamoyl)pyridine-2-sulfonimidamide]: the half-inhibitory concentration (IC50) lay in the range of 5 to 30 µM. The same measure for `CN(C)Cc1cnc(S(N)(=O)=NC(=O)Nc2c3c(cc4c2CCC4)CCC3)c(F)c1` (single isomer, unassigned) [Example 518, (R) or (S)-5-((dimethylamino)methyl)-3-fluoro-N′-((1,2,3,5,6,7-hexahydro-s-indacen-4-yl)carbamoyl) pyridine-2-sulfonimidamide]: 1 to 5 µM. Take `CNCC(C)(C)c1ccc(S(N)(=O)=NC(=O)Nc2c3c(cc4c2CCC4)CCC3)cc1` (single isomer, unassigned) [Example 519, (R) or (S)-N′-((1,2,3,5,6,7-hexahydro-s-indacen-4-yl)carbamoyl)-4-(2-methyl-1-(methylamino)propan-2-yl) benzenesulfonimidamide]: the IC50 was 1 to 5 µM. The value for `CNCC(C)(C)c1ccc(S(N)(=O)=NC(=O)Nc2c3c(cc4c2CCC4)CCC3)cc1` (single isomer, unassigned) [Example 520, (S) or (R)-N′-((1,2,3,5,6,7-hexahydro-s-indacen-4-yl)carbamoyl)-4-(2-methyl-1-(methylamino)propan-2-yl) benzenesulfonimidamide] was 5 to 30 µM. The same measure for `Cc1c(C2CC2)cc2c(c1NC(=O)N=[S@](N)(=O)c1cc(C(C)(C)O)cs1)CCC2` (single isomer, unassigned) [Example 521, (S) or (R)-N′-((6-cyclopropyl-5-methyl-2,3-dihydro-1H-inden-4-yl)carbamoyl)-4-(2-hydroxyprepan-2-yl)thiophene-2-sulfonimidamide]: 1 to 5 µM; for `CC(C)(O)c1cncc(S(N)(=O)=NC(=O)Nc2c3c(c(C#N)c4c2CCC4)CCC3)c1` (single isomer, unassigned) [Example 522, (R) or (S)-N′-((8-cyano-1,2,3,5,6,7-hexahydro-s-indacen-4-yl)carbamoyl)-5-(2-hydroxypropan-2-yl)pyridine-3-sulfonimidamide]: 0.2 to 1 µM; for `CC(C)(O)c1cncc(S(N)(=O)=NC(=O)Nc2c3c(c(C#N)c4c2CCC4)CCC3)c1` (single isomer, unassigned) [Example 523, (S) or (R)-N′-((8-cyano-1,2,3,5,6,7-hexahydro-s-indacen-4-yl)carbamoyl)-5-(2-hydroxypropan-2-yl)pyridine-3-sulfonimidamide]: 5 to 30 µM.

On to `NS(=O)(=NC(=O)Nc1c2c(cc3c1CC3)CCC2)c1ccc(CN2CCC2)cc1F` (single isomer, unassigned) [Example 524, (R) or (S)-4-(azetidin-1-ylmethyl)-2-fluoro-N′-((2,4,5,6-tetrahydro-1H-cyclobuta[f]inden-3 - yl)carbamoyl) benzenesulfonimidamide], for which the IC50 lay in the range of 0.2 to 1 µM. Regarding `NS(=O)(=NC(=O)Nc1c2c(cc3c1CC3)CCC2)c1ccc(CN2CCC2)cc1F` (single isomer, unassigned) [Example 525, (S) or (R)-4-(azetidin-1-ylmethyl)-2-fluoro-N′-((2,4,5,6-tetrahydro-1H-cyclobuta[f]inden-3 - yl)carbamoyl) benzenesulfonimidamide], the IC50 is 5 to 30 µM.

With `CC(C)c1cc2c(cc1NC(=O)N=S(N)(=O)c1cnc(C(C)(C)O)s1)CCC2` (single isomer, unassigned) [Example 526, (R) or (S)-2-(2-hydroxypropan-2-yl)-N′-((6-isopropyl-2,3-dihydro-1H-inden-5-yl)carbamoyl)thiazole-5-sulfonimidamide], the half-inhibitory concentration (IC50) was 0.2 to 1 µM. On to `CC(C)c1cc2c(cc1NC(=O)N=S(N)(=O)c1cnc(C(C)(C)O)s1)CCC2` (single isomer, unassigned) [Example 527, (S) or (R)-2-(2-hydroxypropan-2-yl)-N′-((6-isopropyl-2,3-dihydro-1H-inden-5-yl)carbamoyl) thiazole-5-sulfonimidamide], for which the IC50 is 1 to 5 µM. `CNCC1(c2ccc(S(N)(=O)=NC(=O)Nc3c4c(cc5c3CCC5)CCC4)c(F)c2)CC1` (single isomer, unassigned) [Example 528, (R) or (S)-2-fluoro-N′-((1,2,3,5,6,7-hexahydro-s-indacen-4-yl)carbamoyl)-4-(1-((methylamino)methyl)cyclopropyl) benzenesulfonimidamide]: the IC50 is 0.2 to 1 µM. With `CNCC1(c2ccc(S(N)(=O)=NC(=O)Nc3c4c(cc5c3CCC5)CCC4)c(F)c2)CC1` (single isomer, unassigned) [Example 529, (S) or (R)-2-fluoro-N′-((1,2,3,5,6,7-hexahydro-s-indacen-4-yl)carbamoyl)-4-(1-((methylamino)methyl)cyclopropyl) benzenesulfonimidamide], the IC50 fell in the range of 5 to 30 µM.

Consider `CC(C)(O)c1csc([S@](N)(=O)=NC(=O)Nc2c3c(cc4c2C(=O)CC4)CCC3)c1` (single isomer, unassigned) [Example 530, (R) or (S)-4-(2-hydroxypropan-2-yl)-N′-((3-oxo-1,2,3,5,6,7-hexahydro-s-indacen-4-yl)carbamoyl) (thiophene-2-sulfonimidamide], for which the IC50 fell in the range of 0.04 to 0.2 µM. The value for `CC(C)(O)c1csc([S@@](N)(=O)=NC(=O)Nc2c3c(cc4c2C(=O)CC4)CCC3)c1` (single isomer, unassigned) [Example 531, (S) or (R)-4-(2-hydroxypropan-2-yl)-N′-((3-oxo-1,2,3,5,6,7-hexahydro-s-indacen-4-yl)carbamoyl) (thiophene-2 - sulfoniinidamide] was 1 to 5 µM. On to `COCc1nc(C(C)(C)O)sc1S(N)(=O)=NC(=O)Nc1c2c(c(C#N)c3c1CCC3)CCC2` (single isomer, unassigned) [Example 532, (S) or (R)-N′-((8-cyano-1,2,3,5,6,7-hexahydro-s-indacen-4-yl)carbamoyl)-2-(2-hydroxypropan-2-yl)-4-(methoxymethyl) thiazole-5-suifoiiimidamide], for which the IC50 lay in the range of 1 to 5 µM. The value for `COCc1nc(C(C)(C)O)sc1S(N)(=O)=NC(=O)Nc1c2c(c(C#N)c3c1CCC3)CCC2` (single isomer, unassigned) [Example 533, (R) or (S)-N′-((8-cyano-1,2,3,5,6,7-hexahydro-s-indacen-4-yl)carbamoyl)-2-(2-hydroxypropan-2-yl)-4-(methoxymethyl) thiazole-5-sulfonimidamide] was 0.2 to 1 µM. Turning to `CO[C@H]1COc2c(S(N)(=O)=NC(=O)Nc3c4c(cc5c3CC5)CCC4)cnn2C1` (single isomer, unassigned) [Example 534, (R,6R) or (S,6R)-6-methoxy-N′-((2,4,5,6-tetrahydro-1H-cyclobuta[f]inden-3-yl)carbamoyl)-6,7-dihydro-5H-pyrazolo [5,1-b][1,3]oxazine-3-sulfonimidamide], the IC50 lay within 0.008 to 0.04 µM.

For the compound `CO[C@H]1COc2c(S(N)(=O)=NC(=O)Nc3c4c(cc5c3CC5)CCC4)cnn2C1` (single isomer, unassigned) [Example 535, (S,6R) or (R,6R)-6-methoxy-N′-((2,4,5,6-tetrahydro-1H-cyclobuta[f]inden-3-yl)caibamoyl)-6,7-dihydro-5H-pyrazolo [5,1-b][1,3]oxazine-3-sulfonimidamide], the IC50 fell in the range of 1 to 5 µM.

Take `CNCc1ccc(S(N)(=O)=NC(=O)Nc2c3c(cc4c2CC4)CCC3)cc1` (single isomer, unassigned) [Example 536, (S) or (R)-4-((methylamino)methyl)-N′-((2,4,5,6-tetrahydro-1H-cyclobuta[f]inden-3-yl)carbamoyl) benzenesulfonimidamide]: the IC50 lay in the range of 5 to 30 µM.

On to `CNCc1ccc(S(N)(=O)=NC(=O)Nc2c3c(cc4c2CC4)CCC3)cc1` (single isomer, unassigned) [Example 537, (R) or (S)-4-((methylamino)methyl)-N′-((2,4,5,6-tetrahydro-1H-cyclobuta[f]inden-3-yl)carbamoyl) benzenesulfonimidamide], for which the IC50 was 1 to 5 µM. The value for `CC(C)(O)c1cc(F)c(S(N)(=O)=NC(=O)Nc2c3c(cc4c2C(=O)CC4)CCC3)s1` (single isomer, unassigned) [Example 538, (S) or (R)-3-fluoro-5-(2-hydroxypropan-2-yl)-N′-((3-oxo-1,2,3,5,6,7-hexahydro-s-indacen-4-yl)carbamoyl) thiophene-2-sulfonimidamide] was 5 to 30 µM; that for `CC(C)(O)c1cc(F)c(S(N)(=O)=NC(=O)Nc2c3c(cc4c2C(=O)CC4)CCC3)s1` (single isomer, unassigned) [Example 539, (R) or (S)-3-fluoro-5-(2-hydroxypropan-2-yl)-N′-((3-oxo-1,2,3,5,6,7-hexahydro-s-indacen-4-yl)carbamoyl) thiophene-2-sulfonimidamide] was 0.04 to 0.2 µM; that for `CC(C)(O)c1csc(S(N)(=O)=NC(=O)Nc2c3c(c(C#N)c4c2CCC4)CCC3)n1` (single isomer, unassigned) [Example 540, (S) or (R)-N′-((8-cyano-1,2,3,5,6,7-hexahydro-s-indacen-4-yl)carbamoyl)-4-(2-hydroxypropan-2-yl)thiazole-2-sulfonimidamide] was 1 to 5 µM.

Regarding `CC(C)(O)c1csc(S(N)(=O)=NC(=O)Nc2c3c(c(C#N)c4c2CCC4)CCC3)n1` (single isomer, unassigned) [Example 541, (R) or (S)-N′-((8-cyano-1,2,3,5,6,7-hexahydro-s-indacen-4-yl)carbamoyl)-4-(2-hydroxypropan-2-yl)thiazole-2-sulfonimidamide], the IC50 fell in the range of 0.04 to 0.2 µM.

The record behind these values is patent US20230051589A1, “COMPOUNDS AND COMPOSITIONS FOR TREATING CONDITIONS ASSOCIATED WITH NLRP ACTIVITY” (Novartis AG, priority 2018, published 2023).
